{"source": "patent US20010016731A1", "about": "“Methods and apparatus for accelerated orthokeratology” (priority 1998, published 2001)", "key": {"[1]": {"test_system": "enucleated pig eyes (cornea)"}, "rabbit's eyes (cornea)": {"test_system": "rabbit's eyes (cornea)", "assay": "Experiment 3: live rabbit eye, EYESYS topography and slit-lamp", "format": "in vivo", "conditions": "glutaric anhydride 20 mg/ml in pH 8.5 phosphate buffer, contact lens, 0.3M sodium persulfate, UV two 30 second bursts", "description": "Third set of experiments using a live rabbit. Both the EYESYS topographical system and EFOS Ultracure 100SS were available. The rabbit's eyes were examined by slit-lamp and EYESYS. Topographical profiles were printed. The control eye was left untreated. The experimental eye was exposed to 0.02M phosphate buffer, pH 8.5, and treated with glutaric anhydride at 20 mg/ml in pH 8.5 phosphate buffer followed by application of a contact lens. The eye was then washed with 0.02M phosphate buffer, pH 8.5 to remove residual glutaric acid, soaked with buffer containing 0.3M sodium persulfate and exposed to UV light for two 30 second bursts with the contact lens in place. Both the control and treated eyes were examined by slit-lamp and EYESYS. Topographical profiles were printed."}, "[2]": {"test_system": "enucleated pig eyes (cornea)", "assay": "Experiment 2: enucleated pig eyes, EYESYS topographical mapping and slit lamp", "conditions": "0.3M sodium persulfate, UV about 30 seconds", "description": "Second set of experiments also using enucleated pig eyes. an EYESYS topographical system was available to perform topographical mapping of the eyes before and after treatment. In addition, the EFOS Ultracure 100SS was available for UV light treatment. In a control part of the experiment, an eye was examined using a slit lamp and using the EYESYS system. Neither glutaric anhydride nor sodium persulfate were administered prior to application of UV light exposure. However, buffers were administered to simulate full treatment. […] In a second part of the experiment, a second pig eye was examined by slit lamp, and EYESYS. Topographical profiles were printed. The eye was them soaked in phosphate buffer at pH 8.5 for 2 minutes. Glutaric anhydride at 10 mg/ml was prepared in an alcohol solution and immediately administered to the eye. A contact lens was applied to the eye and held in place for 1 minute. The eye was then soaked in a sodium persulfate solution (0.3M sodium persulfate in pH 8.5 buffer) with the lens still in place. After several one (1) minute soaks in the sodium persulfate solution, the eye was exposed to UV light for about 30 seconds. The lens was removed and the eye washed with phosphate buffer, pH 7.2. The eye was then examined by slit lamp and EYESYS. […] In a third part of the experiment, a third eye was treated the same as above, expect that the glutaric anhydride was delivered in a phosphate buffer, pH 8.5, in an attempt to prevent the clouding observed using alcohol."}, "[3]": {"conditions": "contact lens without destabilization, sodium persulfate solution then UV about 30 seconds"}, "[4]": {"conditions": "glutaric anhydride 10 mg/ml in alcohol solution, contact lens 1 minute"}}}
{"smiles": "O=S(=O)([O-])OOS(=O)(=O)[O-].[Na+].[Na+]", "note": "[sodium persulfate]", "values": [{"measurement": "persistence of ridge created by the contact lens", "setting": "[1]; [3]", "value": "visible after 1 hour"}, {"measurement": "slit-lamp appearance of eyes after treatment", "setting": "[1]; [3]", "value": "clear"}]}
{"smiles": "O=C1CCCC(=O)O1", "note": "[glutaric anhydride]", "values": [{"measurement": "indentations and ridges created by the lens", "setting": "[1]; 10 mg/ml glutaric anhydride 1 minute, contact lens, 0.3M sodium persulfate, UV 20 seconds", "value": "observed immediately post-treatment and 1 hour after treatment"}, {"measurement": "K-readings after UV treatment", "setting": "[1]; 10 mg/ml glutaric anhydride 1 minute, contact lens, 0.3M sodium persulfate, UV 20 seconds, pretreatment 36.75/37.5", "value": "too steep to read and rather distorted"}, {"measurement": "slit-lamp examination of treated eye", "setting": "rabbit's eyes (cornea)", "value": "some corneal haze"}, {"measurement": "surface topography of treated eye (EYESYS)", "setting": "rabbit's eyes (cornea)", "value": "obvious change in surface topography"}, {"measurement": "time for corneal haze to clear", "setting": "rabbit's eyes (cornea)", "value": "about 1 hour"}, {"measurement": "EYESYS examination (eye topography)", "setting": "[2]; [4]", "value": "eye topography had been changed"}, {"measurement": "slit lamp examination (corneal clouding)", "setting": "[2]; [4]", "value": "some cloudiness"}, {"measurement": "EYESYS examination (eye topography)", "setting": "[2]; glutaric anhydride delivered in phosphate buffer pH 8.5, contact lens", "value": "topographical changes appearing to match the curvature of the applied contact lens"}, {"measurement": "slit lamp examination (corneal clouding)", "setting": "[2]; glutaric anhydride delivered in phosphate buffer pH 8.5, contact lens, compared with alcohol solution", "value": "much less corneal clouding"}]}
